# Assay results reported in article PMC9767416, “Discovery of small molecule mechanistic target of rapamycin inhibitors as anti-aging and anti-cancer therapeutics” (Frontiers in Aging Neuroscience, 2022).
# Several values for one entry are separate records, joined by “and”; a condition that tells them apart may be missing. Equal entries are not always repeated.
# Assays:
# mTOR kinase = molecular target: T1, mTOR kinase (Homo sapiens, UniProt P42345); test: In vitro mTOR kinase enzyme assay (Transcreener ADP2 FI); type: biochemical
# T1 construct: purchased Invitrogen
# Method: The mTOR enzyme assay was used to determine the mTOR kinase activity of compound 3. Enzymatic reaction mixture was prepared as follows: mTOR enzyme (10 μg/mL, Invitrogen), ATP (10 μM), p70S6K peptide (10 μg/mL, SignalChem), and kinase buffer (50 mM HEPES, pH 7.5, 1 mM EGTA, 3 mM MnCl2, 10 mM MgCl2, 2 mM DTT, and 0.01% Tween-20). The reaction was performed in black half-area 96-wells at room temperature for 1 h, then stopped by adding ADP detection buffer (Transcreener ADP^2 FI Assay, BellBrook labs) and incubated at room temperature for 1 h. Compound concentration was 10, 20, 40, 80, and 100 μM. The final DMSO concentration was 1%. PHERAstar microplate reader was used for measuring the fluorescence intensity (excitation 575 nm, emission 620 nm).
# TMZ-U87 cells = test: Time-lapse microscopy with annexin V of TMZ-induced senescent U87; type: cell-based, human; settings: 0–100 μM, 72 h
# Method: (§1) To obtain ionizing radiation (IR)-induced senescent cells, proliferating RPE-1 cells were exposed to a single dose of X-rays (20 Gy) using Pantak HF160 (Gulmay, Surrey, UK) X-ray instrument equipped with Pantak Seifert HF320 generator, MXR-161 X-ray tube (Comet AG, Flamatt, Switzerland), and an aluminum filter using current 1–10 mA. After irradiation, the cells were cultured for an additional 7 days until the development of the senescent phenotype ([Salovska et al., 2022]). To induce docetaxel-induced senescence (DIS), BJ cells were exposed to 5 nM docetaxel for 7 days, as described previously ([Sapega et al., 2018]). To prepare temozolomide (TMZ)-induced senescence, U87 cells were exposed to 100 μM TMZ for 14 days.
# For auto-monitoring of cells, Incucyte SX1 Live-Cell Analysis System (Sartorius, Göttingen, Germany), located in an incubator maintained at 37°C under a 5% CO2 atmosphere and 95% humidity, was utilized. The images (1,408 × 1,040 pixels at 1.24 microns/pixel) were acquired using a 10× objective lens in phase contrast, red fluorescence (excitation: 585 ± 20 nm, emission: 635 [625, 705] nm, acquisition time: 100 ms) channels every 60 min during 72 h. The first image was acquired 30 min after adding compounds. The images were processed to measure cell confluence using Incucyte software (version 2022A). […]
# BJ, RPE-1 and U373 cells = test: Crystal violet and resazurin proliferation screen in proliferating cells; type: cell-based, human; settings: RPE-1, U373, 0, 10, 50, 80, 100 μM, 24 h
# Method: All cell lines used in the study were obtained from the American Type Culture Collection (ATCC, Manassas, VA, USA). Human telomerase-immortalized retinal pigment epithelial cells RPE-1, glioblastoma U-87 MG, glioblastoma U373MG, glioblastoma T98G, glioblastoma A-172, breast adenocarcinoma MDA-MB-231, prostate carcinoma DU-145, and non-small cell lung cancer NCI-H1299 cell lines were cultured in Dulbecco’s modified Eagle’s medium (DMEM, Thermo Fisher Scientific, Waltham, MA, USA) with high glucose (4.5 g/L). Primary human skin BJ fibroblasts were cultured in Dulbecco’s modified Eagle’s medium (DMEM, Thermo Fisher Scientific, Waltham, MA, USA) with low glucose (1 g/L). Both cell culture media were supplemented with 10% fetal bovine serum (FBS, Gibco/Thermo Fisher Scientific) and non-essential amino acids (NEAA), 100 units/mL of penicillin, and 100 μg/mL of streptomycin (Sigma-Aldrich). Cells were kept at 37°C under a 5% CO2 atmosphere and 95% humidity.
# (§2) Twenty-four hours before treatment, cells were plated in 96-well plates at densities of 2,850 cells per well for senescent RPE-1 (IR-RPE-1), 3,350 cells per well for proliferating RPE-1 and senescent BJ (DIS-BJ), and 5,000 cells per well for U373, T98, A172, U87, TMZ-U87, and proliferating BJ cells.
# (§3) For the crystal violet assay, the cells were washed twice with 150 μL PBS and stained with 30 μL 0.5% (w/v) crystal violet in 20% methanol for 15 mins. Next, the plates were washed five times with ddH2O and left to dry overnight. Crystal violet was solubilized with 75 μL 0.2% Triton X-100 (Sigma) in PBS for 15 mins. The absorbance was read at 595 nm using a microplate reader (Envision, PerkinElmer, Waltham, MA, USA). The absorbance of crystal violet in treated cells was expressed as a percentage of absorbance in untreated cells. Each condition was measured at least in triplicate.
# (§4) For the resazurin assay, 200 μL of the culture medium of each well was exchanged for 100 μL of resazurin (stock solution 30 mg/mL; Sigma, St. Louis, MO, USA) diluted 10 times in the culture medium, and the cells were incubated at 37°C for 1–3 h. Reading of fluorescence was done using a microplate reader (PerkinElmer, Waltham, MA, USA). Absolute values of fluorescence were related to the values of untreated cells. Each condition was measured at least in triplicate.
# [1] = CNS MPO desirability score; settings: from experimental and calculated data, method of Wager et al. (2016); scale 0-6
# Method: ACDLAbs PhysChem Suite 14.0 software (Advanced Chemistry Development, Inc., Toronto, ON, Canada) was used for the calculation of Mw, tPSA, and HBD values. The CNS MPO score calculation method was described by [Wager et al. (2016)].
# Central nervous system multiparameter optimization desirability score was calculated as described by [Wager et al. (2016)], utilizing all collected experimental and calculated data. This scoring tool was set on ranges of desirable property space and linear transformational functions with values between 0 and 1 (defined as T0 for each property). Rating each parameter equally, the collective score ranges from 0 to 6, while a score higher than 4 is desirable ([Rankovic, 2015]).
# [2] = tested on: IR-induced senescent RPE-1 cells; test: Crystal violet and resazurin assays in IR-induced senescent RPE-1; type: cell-based, human
# Method: as §1, §2, §3
# as §4, with “triplicate. […]” for “triplicate.”
# RPE-1 cells = test: Time-lapse microscopy (Incucyte) of proliferating RPE-1; type: cell-based, human; settings: 0, 10, 50, 80, 100 μM, 72 h
# Method: For auto-monitoring of cells, Incucyte SX1 Live-Cell Analysis System (Sartorius, Göttingen, Germany), located in an incubator maintained at 37°C under a 5% CO2 atmosphere and 95% humidity, was utilized. The images (1,408 × 1,040 pixels at 1.24 microns/pixel) were acquired using a 10× objective lens in phase contrast, red fluorescence (excitation: 585 ± 20 nm, emission: 635 [625, 705] nm, acquisition time: 100 ms) channels every 60 min during 72 h. The first image was acquired 30 min after adding compounds. The images were processed to measure cell confluence using Incucyte software (version 2022A). Annexin V – Dy647, Apronex (diluted 1:1,000) was used for apoptotic cell staining.
# [3] = tested on: glioblastoma T98, A172 and U87 cells; test: Crystal violet and resazurin assays in further glioblastoma lines; type: cell-based, human; settings: 0–100 μM, 24 h
# Method: as §2, §3, §4
structure (smiles),measurement,setting,value
"Nc1ccc(C(=O)Nc2cccc(-c3c[nH]c4ncccc34)c2)cc1O [Compound 3, N-(3-(1H-pyrrolo[2,3-b]pyridin-3-yl)phenyl)-4-amino-3-hydroxybenzamide]",IC50,"mTOR kinase; ATP 10 μM, p70S6K peptide, 1 h",~70 µM and 70 µM
same,inhibition of mTOR kinase activity,mTOR kinase; at 100 μM,complete inhibition
same,concentration from which mTOR kinase activity is inhibited,"mTOR kinase; tested at 10, 20, 40, 80, 100 μM",10 µM
same,"cell phenotype in time-lapse microscopy, annexin V staining",TMZ-U87 cells,loss of cell adhesion followed by cell death
same,effect on the readout of crystal violet and resazurin assays,"BJ, RPE-1 and U373 cells",significant suppressive effect
same,MPO (CNS MPO score),[1],4.5
same,selectivity for senescent versus proliferating cells,"[2]; IR-RPE-1 vs proliferating RPE-1, crystal violet and resazurin",non-selective manner
same,sensitivity of senescent cells (crystal violet and resazurin),"[2]; IR-induced senescent RPE-1, 0–100 μM, 24 h",significantly sensitive
same,"effect on cell proliferation (cell confluence, time-lapse)",RPE-1 cells,showed the effect on RPE-1 cell proliferation
same,effect in crystal violet and resazurin assays,[3],significantly affected
